Legend:
[1] = in words; second component of the two-drug combination; cited from earlier work
L1210 Leukemia = assay: Activity against L1210 leukemia, 10^5 L1210 cell IP (Table IV); assay type: in vivo, mice; details: for Lifespan: untreated control 8; for lifespan and cures of mice implanted with leukemia L1210 cells: FIGS. 1 and 3
Protocol: (§1) These higher levels of the active agent that last for longer periods of time allow effective treatment with these drugs given once a day for nine days (see FIGS. 1, 2 and 3).
(§2) It has been noted that the antitumor activity of 9-β-D-arabinofuranosyl adenine (ara-A) is enhanced by the incorporation of a fluorine atom at the 2-carbon. […] To overcome this difficulty two water-soluble derivatives, the 5'-formate and the 5'-phosphate, were prepared.

[2] = Water solubility (statement); assay type: physicochemical; details: in words
[3] = Conversion to the parent drug in vivo (statement); details: in words
L1210/0 Leukemia = assay: Activity against L1210/0 leukemia, 10^5 IP (Tables II and III); assay type: in vivo, mice
Protocol: as §1
Treatment: IP; QD 1-9 Days*
*2'dCF Given 30 Minutes Before araA
as §2

L1210 cells = assay: Nanomoles of triphosphate per gm L1210 cells after treatment (Table I); assay type: in vivo, mice; details: for levels of F-ara-A triphosphate in leukemic cells versus F-ara-A itself: mouse, in vivo
Protocol: as §1, §2

[4] = Table IV, 375 mg/kg/day, q3h, days 1,5,9
[5] = Table II, 150 mg/kg/dose, IP, QD 1-9 days
[6] = mice implanted with leukemia L1210 cells
[7] = Table IV, 219 mg/kg/day, qd 1-9

In the case of OC[C@H]1O[C@@H](n2cnc3c2NC=NC[C@H]3O)C[C@@H]1O [2'-dCF], the toxicity [1] is listed as “clear but not completely defined toxicity”.

For Nc1ncnc2c1ncn2[C@@H]1O[C@H](COP(=O)(O)O)[C@@H](O)[C@@H]1O [Ara-AMP, 9-β-D-arabinofuranosyl adenine 5'-phosphate, reference compound], the “% ILS” value (L1210 Leukemia; [4]) was 62% and the Lifespan (L1210 Leukemia; [4]) was 13 days.

In the case of Nc1nc(F)nc2c1ncn2[C@@H]1O[C@H](COC=O)[C@@H](O)[C@@H]1O [F-ara-A5'-formate, 9-(5-O-formyl-β-D-arabinofuranosyl)-2-fluoroadenine], the solubility [2] is reported as “water-soluble”, the “conversion to the parent drug in vivo” value [3] is reported as “converted to the parent drug in vivo” and the “lifespan and cures of mice implanted with leukemia L1210 cells” value (L1210 Leukemia) is reported as “good increases in lifespan and some cures”. For the same compound, the “% ILS” value (L1210/0 Leukemia; [5]) was 177%, the Cures (L1210/0 Leukemia; [5]) was 3/10 and the “Median Lifespan” value (L1210/0 Leukemia; Table II, 150 mg/kg/dose, IP, QD 1-9 days, untreated control 9) was 25 days. The Cures (L1210/0 Leukemia; [6]) was “three”, the increase in lifespan (L1210/0 Leukemia; [6]) was 177% and the “levels of F-ara-A triphosphate in leukemic cells versus F-ara-A itself” value (L1210 cells) was “higher levels”.

With Nc1nc(F)nc2c1ncn2[C@@H]1O[C@H](CO)[C@@H](O)[C@@H]1O [F-ara-A, 9-β-D-arabinofuranosyl-2-fluoroadenine, reference compound] the solubility [2] was “very insoluble” and the “levels of the triphosphate in L1210 versus ara-A+2'dCF” value (L1210 cells; near equimolar doses) was “higher levels”.

For Nc1nc(F)nc2c1ncn2[C@@H]1O[C@H](COP(=O)(O)O)[C@@H](O)[C@@H]1O [F-ara-AMP, 9-β-D-arabinofuranosyl-2-fluoroadenine 5'-phosphate], the solubility [2] was “water-soluble”, the “conversion to the parent drug in vivo” value [3] was “converted to the parent drug in vivo” and the “lifespan and cures of mice implanted with leukemia L1210 cells” value (L1210 Leukemia) was “good increases in lifespan and some cures”. The “% ILS” value (L1210 Leukemia; [7]) was 125%, the Cures (L1210 Leukemia; [7]) was 3/10 and the Lifespan (L1210 Leukemia; [7]) was 18 days. For the same compound, the “levels of F-ara-A triphosphate in leukemic cells versus F-ara-A itself” value (L1210 cells) was “higher levels”.

For Nc1ncnc2c1ncn2[C@@H]1O[C@H](CO)[C@@H](O)[C@@H]1O [ara-A, 9-β-D-arabinofuranosyl adenine, reference compound], the effectiveness (L1210 Leukemia; optimal schedule, every 3 hours for 24 hours) was “not very effective”.

Reference: US4357324A, “Prodrug derivatives of 9β-D-arabinofuranosyl-2-fluoroadenine” (The United States of America as represented by the …, priority 1981, dated 1982)
